Consider eleven compounds from ChEMBL document CHEMBL1201862, “PubChem BioAssay data set” (2004).

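Protocol summary: plate cells (96-well), add compound at 5 concentrations, incubate 48 h, interpolate endpoints linearly. Here, GI50 denotes the concentration required for 50% inhibition of growth.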 Activity calls are given as the source filed them. Cut-off read from the data, not from the text of the source: active = GI50 up to about 1.1 µM and inactive = higher. A value given as a limit tells only on which side of the number the result lay.

What all share (test): growth of human tumour cells (NCI), 48 h
Experiment [1] concerns 786-0.
The subject of experiment [2] is CCRF-CEM.
In experiment [3] the test system is EKVX.
Experiment [4] relates to HCT-15.
Experiment [5] concerns HL-60.
Experiment [6] has as its system HOP-62.
The subject of experiment [7] is HOP-92.
The test system of experiment [8] is Hs-578T.
Experiment [9] has as its system K562.
Experiment [10] concerns LOX IMVI.
The test system of experiment [11] is MOLT-4.
The subject of experiment [12] is NCI-H460.
Experiment [13] relates to PC-3.
Experiment [14] concerns RXF 393.
Experiment [15] has as its system SK-MEL-28.
Experiment [16] has as its system T47D.
For experiment [17], the system named is U-251.
Experiment [18] deals with UACC-257.
The test system of experiment [19] is UO-31.
Experiment [20] has as its system SK-MEL-2.

In the case of `CC(=O)O[C@H]1CC[C@@]2(C)C(=CC[C@@H]3[C@@H]2CC[C@]2(C)c4c(C)n[nH]c4C[C@@H]32)C1`, the GI50 in experiment [1] is 17.4 µM (inactive); in [2] it was 4.97 µM (inactive); in experiment [3], 17.9 µM (inactive); in experiment [4], 15 µM; in experiment [5], 10.1 µM (inactive); in [6] it was 21.1 µM (inactive). Also, the GI50 is 21 µM (inactive) in experiment [7]; 17.6 µM (inactive) in [8]; 2.54 µM (inactive) in [9]; 31.5 µM (inactive) in [10]; 11.7 µM (inactive) in experiment [11]; 15.6 µM (inactive) in experiment [12]. The GI50 in [13] was 17.3 µM (inactive); in [14], 11.4 µM (inactive); in experiment [15], 20.7 µM (inactive); in experiment [16], 9.53 µM (inactive); in experiment [17], 15.3 µM (inactive); in [18], 16.7 µM (inactive). In addition, the GI50 in experiment [19] was 17.7 µM (inactive).
As to `Cc1ccc(C2=Nn3c(nc4sc(C)c(C)c4c3=O)SC2)cc1`, the GI50 was > 100 µM (inactive) in experiment [1]; > 10 µM (inactive) in experiment [2]; > 100 µM (inactive) in [3]; > 100 µM in experiment [4]; > 100 µM (inactive) in [5]; 64.1 µM (inactive) in experiment [6]. The GI50 in experiment [7], in experiment [8], in experiment [9], in experiment [10], in [11] and in experiment [12] was > 100 µM (inactive) throughout. Also, the GI50 in [13], in experiment [14], in experiment [15], in experiment [16], in experiment [17] and in experiment [18] was > 100 µM (inactive) in each case. In addition, the GI50 in experiment [19] was > 100 µM (inactive).
Regarding `O=C(c1ccccc1)c1c(-c2ccccc2)n(-c2ccccc2)[nH]c(=O)c1=O`, the GI50 is 31.2 µM (inactive) in experiment [1]; 15.5 µM (inactive) in [2]; 55.5 µM (inactive) in [3]; 78.2 µM in experiment [4]; 32.2 µM (inactive) in [5]; 28.8 µM (inactive) in [6]. In addition, the GI50 in [7] was 31.2 µM (inactive); in [8], 21.6 µM (inactive); in experiment [9], 14.8 µM (inactive); in experiment [10], 25.6 µM (inactive); in experiment [11] it was 28.2 µM (inactive); in experiment [12] it was 44.7 µM (inactive). In addition, the GI50 was 18.9 µM (inactive) in [13]; > 100 µM (inactive) in [15]; 24 µM (inactive) in [20]; > 100 µM (inactive) in [16]; 44.5 µM (inactive) in experiment [17]; 70.1 µM (inactive) in [18]. In experiment [19], the GI50 was 48.4 µM (inactive).
For `c1ccc2c(c1)/C(=N\NC1=NCCN1)c1nc3ccccc3nc1-2`, the GI50 in [1] was 3.91 µM (inactive); in experiment [2], 3.8 µM (inactive); in experiment [3], 12.9 µM (inactive); in experiment [4] it was 3.52 µM; in experiment [5], 3.83 µM (inactive); in experiment [6], 3.72 µM (inactive). The GI50 in experiment [7] was 2.58 µM (inactive); in experiment [8], 16.6 µM (inactive); in experiment [9] it was 4.52 µM (inactive); in [11] it was 1.13 µM (inactive); in experiment [12], 2.44 µM (inactive); in experiment [13], 2.56 µM (inactive). Further, the GI50 in experiment [14] is 2.71 µM (inactive); in [15] it was 13.5 µM (inactive); in experiment [16], 19 µM (inactive); in experiment [17] it was 6.87 µM (inactive); in [18], 5.31 µM (inactive).
On to `CC(C)/C=N\n1c(N)c(C#N)c(C#N)c1C(C)C`, for which the GI50 is 40.2 µM (inactive) in [1]; 19.9 µM (inactive) in experiment [2]; 20.4 µM (inactive) in [3]; 24.3 µM in experiment [4]; 26.1 µM (inactive) in [5]; 31.1 µM (inactive) in experiment [6]. Moreover, the GI50 in [7] is 13 µM (inactive); in experiment [8], 20.4 µM (inactive); in [9], 24 µM (inactive); in experiment [10], 19 µM (inactive); in [11] it was 13.5 µM (inactive); in [13], 17.1 µM (inactive). Besides, the GI50 in experiment [14] was 18.1 µM (inactive); in [20] it was 18.2 µM (inactive); in experiment [16] it was 16.5 µM (inactive); in experiment [17], 28.9 µM (inactive); in experiment [18] it was 14.7 µM (inactive); in [19], 15.8 µM (inactive).
For the compound `CCCCCC(=O)N[C@@H](c1ccccc1)C(O)C(=O)OC1C[C@@]2(O)C(OC(=O)c3ccccc3)C3[C@](C)(C(=O)[C@H](O)C(=C1C)C2(C)C)C(OC1OCC(O)C(O)C1O)C[C@H]1OC[C@@]31OC(C)=O` (stereo partly specified), the GI50 in experiment [1] is 4.93 µM (inactive); in experiment [2], 1.57 µM (inactive); in experiment [3] it was > 64.7 µM (inactive); in experiment [4] it was > 100 µM; in [5], 0.542 µM (active); in experiment [6] it was 5.05 µM (inactive). The GI50 in [7] is 24.6 µM (inactive); in experiment [8], 0.198 µM (active); in experiment [9], 0.966 µM (active); in experiment [11] it was 2.45 µM (inactive); in [12], 0.757 µM (active); in experiment [13], 1.29 µM (inactive). Besides, the GI50 in [14] was 1.98 µM (inactive); in [15], 2.7 µM (inactive); in experiment [16], 1.76 µM (inactive); in experiment [17], 1.64 µM (inactive); in [18], > 100 µM (inactive); in experiment [19], > 75.9 µM (inactive).
Turning to `CSc1ccc(-c2cc(-c3nc4ccccc4[nH]3)no2)cc1`, the GI50 is 55.1 µM (inactive) in experiment [1]; 18.4 µM (inactive) in [2]; 24.7 µM (inactive) in experiment [3]; 9.62 µM in experiment [4]; 21.6 µM (inactive) in experiment [5]; 34.4 µM (inactive) in experiment [6]. In addition, the GI50 is 50.6 µM (inactive) in experiment [7]; 37.1 µM (inactive) in experiment [8]; 22.1 µM (inactive) in experiment [9]; 24.3 µM (inactive) in experiment [10]; 8.34 µM (inactive) in experiment [11]; 18.4 µM (inactive) in [12]. The GI50 in [13] is 32.6 µM (inactive); in [15], 27.6 µM (inactive); in [20], 20.4 µM (inactive); in experiment [16], 5.77 µM (inactive); in experiment [18], 30.2 µM (inactive); in experiment [19], 13.1 µM (inactive).
Take `O=C(O)/C=C/C(=O)N1Cc2cc3ccccc3nc2C1`: the GI50 in experiment [1] is > 100 µM (inactive); in experiment [3] it was > 100 µM (inactive); in experiment [4] it was > 100 µM; in experiment [5], > 100 µM (inactive); in experiment [6], > 100 µM (inactive); in experiment [7], > 100 µM (inactive). The GI50 in [8], in experiment [9], in experiment [10], in [11], in experiment [12] and in experiment [13] was > 100 µM (inactive) each time. Moreover, the GI50 in [14], in experiment [15], in experiment [20], in experiment [16], in experiment [17] and in [18] was > 100 µM (inactive) each time. The GI50 in experiment [19] is > 100 µM (inactive).
With `CCOC(=O)c1c(SC(=O)c2cc(OC)c(OC)c(OC)c2)n(-c2ccccc2)c(=S)n(-c2ccccc2)c1=O`, the GI50 in experiment [1] was > 100 µM (inactive); in experiment [2], > 100 µM (inactive); in experiment [3], > 100 µM (inactive); in experiment [4] it was > 100 µM; in experiment [5], > 100 µM (inactive); in [6], > 100 µM (inactive). For the same compound, the GI50 in experiment [7], in experiment [8], in experiment [9], in experiment [10], in experiment [11] and in experiment [12] was > 100 µM (inactive) each time. Also, the GI50 in [13], in experiment [14], in experiment [15], in [16], in experiment [17] and in experiment [18] was > 100 µM (inactive) in each case.
For the compound `OCC(O)C(O)C(C=NNc1ncnc2ccc(Br)cc12)=NNc1ncnc2ccc(Br)cc12` (stereo unspecified), the GI50 is 0.834 µM (active) in experiment [1]; 0.406 µM (active) in experiment [3]; 0.282 µM (active) in experiment [5]; 2.64 µM (inactive) in [6]; 2.24 µM (inactive) in experiment [7]; 9.62 µM (inactive) in experiment [8]. Moreover, the GI50 was 2.25 µM (inactive) in experiment [9]; 0.745 µM (active) in experiment [10]; 0.258 µM (active) in experiment [11]; 4.35 µM (inactive) in experiment [13]; 2.14 µM (inactive) in [14]; 1.45 µM (inactive) in [15]. For the same compound, the GI50 in experiment [20] is 2.3 µM (inactive); in [16], 0.373 µM (active); in experiment [17], 1.75 µM (inactive); in [18], 3.1 µM (inactive); in experiment [19], 2.78 µM (inactive).
Regarding `COc1cc([C@@H]2OC[C@@H]3C(c4cc(OC)c5c(c4)OCO5)OC[C@@H]32)cc(OC)c1OC` (stereo partly specified), the GI50 is > 100 µM (inactive) in experiment [1]; 52.4 µM (inactive) in [2]; > 100 µM (inactive) in experiment [3]; 43.3 µM in experiment [4]; > 10 µM (inactive) in experiment [5]; > 100 µM (inactive) in [6]. Besides, the GI50 is > 100 µM (inactive) in experiment [7]; > 100 µM (inactive) in experiment [8]; > 100 µM (inactive) in experiment [9]; > 100 µM (inactive) in [10]; 51.3 µM (inactive) in experiment [11]; > 100 µM (inactive) in [12]. Also, the GI50 in [13] is 50.1 µM (inactive); in [15], > 100 µM (inactive); in [20], > 100 µM (inactive); in [16], 46.1 µM (inactive); in experiment [17] it was > 100 µM (inactive); in [18] it was > 100 µM (inactive). Also, the GI50 in experiment [19] was > 100 µM (inactive).
